The values that follow come from patent US20130288323A1, “MICROBIAL PRODUCTION OF POLYHYDROXYALKANOATES” (UNIVERSITY OF MANITOBA, priority 2010, published 2013).

In one assay the test system is P. aeruginosa. The conditions noted are these: salicylic acid between 5 mM and 60 mM in growth medium; cited from earlier work.
The subject of assay [1] is P. putida LS46. As to the kind of experiment: Growth of P. putida LS46 in the presence of salicylic acid. It is filed as cell-based, Pseudomonas putida. The note with it: salicylic acid at 10 mM. Here is the method:
(§1) Salicylic acid has been used as an inhibitor of β-oxidation in plant, animal, and bacterial cells. […] Salicylic acid at 10 mM inhibited P. putida LS46 growth. Therefore, 1-5 mM concentration of salicylic acid was studied for its effect on mcl-PHA production by P. putida LS46. To separate volumes of Ramsey's liquid medium supplemented with 2% of glucose were added: (i) no salicylic acid (control), (ii) 1.0 nM salicylic acid, (iii) 2.5 mM salicylic acid, or (iv) 5.0 salicylic acid. After sterilization, the liquid media were dispensed into flasks which were then each inoculated with 1% inoculum of P. putida LS46, and then cultured for 48 h. Cultures were then harvested and their cdw, the percentage accumulation of mcl-PHAs in the cells, and the mol % monomer composition of C8 […] the mcl-PHAs were determined. […] 3-hydroxyoctanoate decreased, while 3-hydroxydecanoate increased, in the presence of 2.5 mM and 5.0 mM salicylic acid, compared with the control (Table 6).

For assay [2], the system named is P. putida LS46. As to the kind of experiment: Effects of salicylic acid on production of mcl-PHAs by P. putida LS46. It is filed as cell-based, Pseudomonas putida. The note with it: 1.0 mM salicylic acid; Ramsey's medium + 2% glucose; 48 h.
For assay [3], the system named is P. putida LS46. Described as above. The note with it: Ramsey's medium + 2% glucose, 48 h. The assay is classed as cell-based, Pseudomonas putida. Here is the method: Six of the microbial isolates (i.e., LS1, LS5, LS33, LS34, LS39, LS46) that produced epifluorescence under UV illumination were separately cultured for 72 h in: (i) 200 mL LB broth, and (ii) 200 mL LB broth supplemented with 3 g/L glucose. The microbial cells were centrifuged at 4500 g for 20 min in a Sorvall RC6-Plus centrifuge. The microbial pellets were washed twice in 0.85% NaCl and then dried at 80° C. for 48 h. The intracellular PHA contents and PHA composition were determined by GC-MS following the method taught by Braunegg et al. (1978, Eur. J. Appl. Microbiol. Biotechnol. 6:29-37). Dried cells (20 mg) were mixed with 1 mL chloroform and 1 mL methanol containing 15% sulphuric acid. Benzoic acid (1 mg/mL) was used as an internal standard. The suspensions were refluxed at 100° C. for 4 h, after which, 0.5 ml of water were added to each suspension. The mixtures were centrifuged at 4000×g. The lower chloroform layers were separated and analyzed using a GC-MS fitted FID detector and aHP-5 capillary column. The initial oven temperature was set at 75° C. for 6 min and then was increased to 265° C. with a ramping rate of 20° C./min.
as §1, with “To separate volumes of Ramsey's liquid medium supplemented with 2% of glucose were added: (i) no salicylic acid (control), (ii) 1.0 nM salicylic acid, (iii) 2.5 mM salicylic acid, or (iv) 5.0 salicylic acid.” left out

Regarding `O=C(O)c1ccccc1O` [Salicylic acid, salicylic acid], the “monomer composition of mcl-PHAs produced by P. aeruginosa” value with P. aeruginosa is given as “altered the monomer composition”. Further, in the assay on P. putida LS46 [1], the “growth of P. putida LS46” value is listed as “inhibited”. Besides, in the assay on P. putida LS46 [2], the “3-hydroxyalkanoate monomer content C6” value is given as 3.97 mol %, the “3-hydroxyalkanoate monomer content C8” value was 46.30 mol % and the PHA content is recorded as 26.07 % CDW. For the same molecule, in the assay on P. putida LS46 [3] (1.0 mM salicylic acid), the “3-hydroxyalkanoate monomer content C10” value stood at 47.90 mol %, the “3-hydroxyalkanoate monomer content C12” value came to 1.91 mol % and the CDW is reported as 3.08 g/L. Also, in the assay with P. putida LS46 [3] (2.5 mM salicylic acid), the “3-hydroxyalkanoate monomer content C6” value amounted to 3.39 mol %, the “3-hydroxyalkanoate monomer content C8” value was 44.06 mol %, the “3-hydroxyalkanoate monomer content C10” value is listed as 52.03 mol % and the “3-hydroxyalkanoate monomer content C12” value is given as 0.93 mol %. Moreover, in the assay on P. putida LS46 [3] (2.5 mM salicylic acid), the CDW was 2.89 g/L and the PHA content came to 28.90 % CDW. Further, in the assay on P. putida LS46 [3] (5.0 mM salicylic acid), the “3-hydroxyalkanoate monomer content C6” value amounted to 2.46 mol %, the “3-hydroxyalkanoate monomer content C8” value worked out at 42.49 mol %, the “3-hydroxyalkanoate monomer content C10” value is listed as 53.36 mol % and the “3-hydroxyalkanoate monomer content C12” value was 0.66 mol %. In the assay with P. putida LS46 [3] (5.0 mM salicylic acid), the CDW was 2.64 g/L and the PHA content is given as 21.89 % CDW.
